Key:
[1] = test system: H1299 cells; assay: in vitro antiproliferation assay, H1299 (lung); format: cell-based
Protocol: (§1) The IC50 values of various compounds against a various different tumor cell lines were determined using standard in vitro antiproliferation assays. The tumor cell lines tested were as follows: A549 (lung); H1299 (lung), ACHN (kidney/p53 wt), CAKI (renal cell carcinoma), NCI-H460 (lung); HCT116 (colon/p53w0; HELA (cervix/p53 wt), HUH7 (liver/p53 wt), HUVEC (primary endothelial), LNCAP (prostate), HT-29 (colon); MCF-7 (breast); MCF-7 (breast/ER positive), MDA MB435S (breast); MDA MB231 (breast/ER negative), DU145 (prostate); BxPC-3 (pancreatic); SKOV-3 (ovarian); HepG2 (hepatic), NDHF primary normal human dermal fibroblast), SKMEL28 (breast/p53mut), SKMEL5 (breast/p53 wt), U20S (bone) and PC3 (prostate). […] A blank indicates the specified compound was not tested against the specified cell line.

[2] = test system: A549 cells; assay: in vitro antiproliferation assay, A549 (lung); format: cell-based
Protocol: as §1

[3] = Homo sapiens, NCI-H1299, IC50 class against H1299 (lung) tumor cells
[4] = Homo sapiens, IC50 class against A549 (lung) tumor cells
[5] = IC50 class against H1299 (lung) tumor cells
[6] = IC50 class against A549 (lung) tumor cells
[7] = in vitro antiproliferation, H1299 (lung) cells, Table 4, compounds with no designated stereochemistry tested as racemate
[8] = in vitro antiproliferation, A549 (lung) cells, Table 4, compounds with no designated stereochemistry tested as racemate
[9] = Table 5, in vitro antiproliferation, H1299 (lung) cells
[10] = Table 5, in vitro antiproliferation, A549 (lung) cells

SMILES | IC50 [1, 7] [µM] | IC50 [2, 8] [µM] | IC50 [1, 9] [µM] | IC50 [2, 10] [µM] | also measured
COC(=O)N1CCN(c2ccc(Nc3ncc(F)c(Nc4cc(C(C)(C)C)[nH]n4)n3)cc2)CC1 [compound 203] | – | – | – | – | IC50 [1, 3]: ≤ 20 µM; IC50 [2, 4]: ≤ 20 µM
CN1CCN(c2ccc(Nc3ncc(F)c(Nc4cc(C(C)(C)C)[nH]n4)n3)cc2)CC1 [compound 204] | – | – | – | – | IC50 [1, 3]: ≤ 20 µM; IC50 [2, 4]: ≤ 20 µM
CC(=O)N1CCN(c2cccc(Nc3ncc(F)c(Nc4cc(C5CC5)[nH]n4)n3)c2)CC1 [compound 205] | – | – | – | – | IC50 [1, 3]: ≤ 20 µM; IC50 [2, 4]: ≤ 20 µM
CN1CCN(c2ccc(Nc3ncc(F)c(Nc4cc(C5CC5)[nH]n4)n3)cc2)CC1 [compound 206] | – | – | – | – | IC50 [1, 3]: ≤ 20 µM; IC50 [2, 4]: ≤ 20 µM
Fc1cnc(Nc2cccc(N3CCOCC3)c2)nc1Nc1cc(C2CC2)[nH]n1 [compound 207] | – | – | – | – | IC50 [1, 3]: ≤ 20 µM; IC50 [2, 4]: ≤ 20 µM
CCOC(=O)N1CCN(c2ccc(Nc3ncc(F)c(Nc4cc(C5CC5)[nH]n4)n3)cc2)CC1 [compound 209] | – | – | – | – | IC50 [1, 3]: ≤ 20 µM; IC50 [2, 4]: ≤ 20 µM
Fc1cnc(Nc2ccc(N3CCOCC3)cc2)nc1Nc1cc(C2CC2)[nH]n1 [compound 210] | – | – | – | – | IC50 [1, 3]: > 20 µM; IC50 [2, 4]: ≤ 20 µM
CN1CCN(c2ccc(Nc3ncc(F)c(Nc4cc(C5CC5)[nH]n4)n3)cc2Cl)CC1 [compound 212] | – | – | – | – | IC50 [1, 3]: ≤ 20 µM; IC50 [2, 4]: ≤ 20 µM
Cc1cc(Nc2ncc(F)c(Nc3cc(C4CC4)[nH]n3)n2)ccc1N1CCN(C)CC1 [compound 213] | – | – | – | – | IC50 [1, 3]: ≤ 20 µM; IC50 [2, 4]: ≤ 20 µM
CN1CCN(c2ccc(Nc3ncc(F)c(Nc4cc(C5CC5)[nH]n4)n3)cc2C(F)(F)F)CC1 [compound 214] | – | – | – | – | IC50 [1, 3]: ≤ 20 µM; IC50 [2, 4]: ≤ 20 µM
CC(C)Nc1nc(Nc2ccc(N3CCN(C)CC3)cc2)ncc1F [compound 215] | – | – | – | – | IC50 [1, 5]: ≤ 20 µM; IC50 [2, 6]: ≤ 20 µM
CC(C)Nc1nc(Nc2ccc(N3CCN(C)CC3)c(Cl)c2)ncc1F [compound 216] | – | – | – | – | IC50 [1, 5]: ≤ 20 µM; IC50 [2, 6]: ≤ 20 µM
Cc1cc(Nc2ncc(F)c(NC(C)C)n2)ccc1N1CCN(C)CC1 [compound 217] | – | – | – | – | IC50 [1, 5]: ≤ 20 µM; IC50 [2, 6]: ≤ 20 µM
CC(C)Nc1nc(Nc2ccc(N3CCN(C)CC3)c(C(F)(F)F)c2)ncc1F [compound 218] | – | – | – | – | IC50 [1, 5]: ≤ 20 µM; IC50 [2, 6]: ≤ 20 µM
CC(C)Nc1nc(Nc2cccc(N3CCN(C)CC3)c2)ncc1F [compound 219] | – | – | – | – | IC50 [1, 5]: ≤ 20 µM; IC50 [2, 6]: ≤ 20 µM
CN1CCN(c2ccc(Nc3ncc(F)c(NC(C)(C)C)n3)cc2)CC1 [compound 220] | – | – | – | – | IC50 [1, 5]: ≤ 20 µM; IC50 [2, 6]: ≤ 20 µM
CN1CCN(c2cccc(Nc3ncc(F)c(NC(C)(C)C)n3)c2)CC1 [compound 221] | – | – | – | – | IC50 [1, 5]: ≤ 20 µM; IC50 [2, 6]: ≤ 20 µM
CN1CCN(c2ccc(Nc3ncc(F)c(NC(C)(C)C)n3)cc2Cl)CC1 [compound 222] | – | – | – | – | IC50 [1, 5]: ≤ 20 µM; IC50 [2, 6]: ≤ 20 µM
Cc1cc(Nc2ncc(F)c(NC(C)(C)C)n2)ccc1N1CCN(C)CC1 [compound 223] | – | – | – | – | IC50 [1, 5]: ≤ 20 µM; IC50 [2, 6]: ≤ 20 µM
CN1CCN(c2ccc(Nc3ncc(F)c(NC(C)(C)C)n3)cc2C(F)(F)F)CC1 [compound 224] | – | – | – | – | IC50 [1, 5]: ≤ 20 µM; IC50 [2, 6]: ≤ 20 µM
CCN1CCN(c2ccc(Nc3ncc(F)c(NC(C)C)n3)cn2)CC1 [compound 225] | – | – | – | – | IC50 [1, 5]: ≤ 20 µM; IC50 [2, 6]: ≤ 20 µM

SMILES | IC50 [1, 7] [µM] | IC50 [2, 8] [µM] | IC50 [1, 9] [µM] | IC50 [2, 10] [µM] | also measured
CCN1CCN(c2ccc(Nc3ncc(F)c(NC(C)(C)C)n3)cn2)CC1 [compound 226] | – | – | – | – | IC50 [1, 5]: ≤ 20 µM; IC50 [2, 6]: ≤ 20 µM
Cc1cc(Nc2ncc(F)c(NC(C)C)n2)cnc1N1CCN(C)CC1 [compound 227] | – | – | – | – | IC50 [1, 5]: ≤ 20 µM; IC50 [2, 6]: ≤ 20 µM
Cc1cc(C)cc(Nc2ncc(F)c(Nc3ccc4c(c3)NC(=O)C(C)O4)n2)c1 (centres unmarked) [compound 229] | ≤ 20 | ≤ 20 | – | – | –
O=C1COc2ccc(Nc3nc(Nc4cccc(-c5ncco5)c4)ncc3F)cc2N1 [compound 236] | ≤ 20 | ≤ 20 | – | – | –
O=C1COc2ccc(Nc3nc(Nc4cccc(-c5cnco5)c4)ncc3F)cc2N1 [compound 239] | ≤ 20 | > 20 | – | – | –
C[C@@H]1Oc2ccc(Nc3nc(Nc4cccc(-c5cnco5)c4)ncc3F)cc2NC1=O [compound 240] | > 20 | ≤ 20 | – | – | –
CN1C(=O)COc2ccc(Nc3nc(Nc4cccc(O)c4)ncc3F)cc21 [compound 255] | ≤ 20 | ≤ 20 | – | – | –
COc1cc(Nc2ncc(F)c(Nc3ccc4c(c3)NC(=O)C(C)(C)S4(=O)=O)n2)cc(OC)c1 [compound 263] | > 20 | > 20 | – | – | –
Cc1cc(C)cc(Nc2ncc(F)c(Nc3ccc4c(c3)NC(=O)C(C)(C)S4(=O)=O)n2)c1 [compound 264] | ≤ 20 | > 20 | – | – | –
COc1cc(Nc2ncc(F)c(Nc3ccc4c(c3)NC(=O)C(C)(C)S4(=O)=O)n2)cc(OC)c1OC [compound 265] | ≤ 20 | ≤ 20 | – | – | –
COc1ccc(Nc2ncc(F)c(Nc3ccc4c(c3)NC(=O)C(C)(C)S4(=O)=O)n2)cc1F [compound 287] | ≤ 20 | ≤ 20 | – | – | –
COc1ccc(Nc2ncc(F)c(Nc3ccc4c(c3)NC(=O)C(C)(C)S4)n2)cc1F [compound 289] | ≤ 20 | ≤ 20 | – | – | –
COc1ccc(Nc2ncc(F)c(Nc3ccc4c(c3)NC(=O)CS4)n2)cc1F [compound 290] | ≤ 20 | ≤ 20 | – | – | –
CNC(=O)COc1cccc(Nc2ncc(F)c(Nc3ccc4c(c3)N(C)C(=O)CO4)n2)c1 [compound 299] | > 20 | ≤ 20 | – | – | –
CC1(C)Oc2ccc(Nc3nc(Nc4cc(CO)cc(CO)c4)ncc3F)cc2NC1=O [compound 320] | ≤ 20 | ≤ 20 | – | – | –
COc1cc(Cl)cc(Nc2ncc(F)c(Nc3ccc4c(c3)NC(=O)C(C)(C)O4)n2)c1 [compound 321] | ≤ 20 | ≤ 20 | – | – | –
COc1cc(Nc2ncc(F)c(N(C)c3ccc4c(c3)NC(=O)C(C)(C)O4)n2)cc(OC)c1 [compound 323] | ≤ 20 | ≤ 20 | – | – | –
Cc1cc(C)cc(Nc2ncc(F)c(N(C)c3ccc4c(c3)N(C)C(=O)C(C)(C)O4)n2)c1 [compound 324] | > 20 | ≤ 20 | – | – | –
COc1ccc(Nc2ncc(F)c(N(C)c3ccc4c(c3)N(C)C(=O)C(C)(C)O4)n2)cc1Cl [compound 325] | ≤ 20 | ≤ 20 | – | – | –
COc1cc(Nc2ncc(F)c(N(C)c3ccc4c(c3)N(C)C(=O)C(C)(C)O4)n2)cc(OC)c1 [compound 326] | ≤ 20 | ≤ 20 | – | – | –
COc1ccc(Nc2ncc(F)c(N(C)c3ccc4c(c3)NC(=O)C(C)(C)O4)n2)cc1Cl [compound 327] | ≤ 20 | ≤ 20 | – | – | –

SMILES | IC50 [1, 7] [µM] | IC50 [2, 8] [µM] | IC50 [1, 9] [µM] | IC50 [2, 10] [µM] | also measured
CCOC(=O)COc1cccc(Nc2ncc(F)c(Nc3ccc4c(c3)OCCO4)n2)c1 [compound 491] | – | – | ≤ 20 | > 20 | –
Fc1cnc(Nc2cccc(Cl)c2)nc1Nc1ccc2c(c1)OC(F)(F)O2 [compound 513] | – | – | ≤ 20 | ≤ 20 | –
Fc1cnc(Nc2cccc(-c3ncco3)c2)nc1Nc1ccc2c(c1)OCCO2 [compound 515] | – | – | ≤ 20 | ≤ 20 | –
Cc1cc(O)cc(Nc2ncc(F)c(Nc3ccc4c(c3)OCCO4)n2)c1 [compound 521] | – | – | > 20 | ≤ 20 | –
Fc1cc(Nc2ncc(F)c(Nc3ccc4c(c3)OCCO4)n2)cc(C(F)(F)F)c1 [compound 522] | – | – | > 20 | > 20 | –
Fc1cc(F)cc(Nc2ncc(F)c(Nc3ccc4c(c3)OCCO4)n2)c1 [compound 524] | – | – | > 20 | > 20 | –
Fc1cnc(Nc2ccc(OC(F)F)c(Cl)c2)nc1Nc1ccc2c(c1)OCCO2 [compound 526] | – | – | > 20 | ≤ 20 | –
Fc1cnc(Nc2cc(Cl)cc(Cl)c2)nc1Nc1ccc2c(c1)OCCO2 [compound 530] | – | – | ≤ 20 | ≤ 20 | –
COc1cc(Nc2ncc(F)c(Nc3ccc4c(c3)OCCO4)n2)cc(C(F)(F)F)c1 [compound 531] | – | – | ≤ 20 | > 20 | –
COc1cc(Nc2ncc(F)c(Nc3ccc4c(c3)OC(F)(F)C(F)(F)O4)n2)cc(OC)c1 [compound 532] | – | – | ≤ 20 | ≤ 20 | –
Cc1cc(Nc2ncc(F)c(Nc3ccc4c(c3)OC(F)(F)C(F)(F)O4)n2)cc(C)c1Cl [compound 533] | – | – | ≤ 20 | > 20 | –
Fc1cnc(Nc2cc(Cl)cc(Cl)c2)nc1Nc1ccc2c(c1)OC(F)(F)C(F)(F)O2 [compound 535] | – | – | ≤ 20 | ≤ 20 | –
COc1cc(Nc2ncc(F)c(Nc3ccc4c(c3)OC(F)(F)C(F)(F)O4)n2)cc(C(F)(F)F)c1 [compound 536] | – | – | ≤ 20 | ≤ 20 | –
Cc1cc(C)cc(Nc2ncc(F)c(Nc3ccc4c(c3)OC(F)(F)C(F)(F)O4)n2)c1 [compound 537] | – | – | ≤ 20 | ≤ 20 | –
Cc1cc(Nc2ncc(F)c(Nc3ccc4c(c3)OC(F)(F)C(F)(F)O4)n2)cc(C(F)(F)F)c1 [compound 538] | – | – | > 20 | ≤ 20 | –
COc1cc(Cl)cc(Nc2ncc(F)c(Nc3ccc4c(c3)OCCO4)n2)c1 [compound 539] | – | – | ≤ 20 | ≤ 20 | –
COc1cc(Nc2ncc(F)c(Nc3ccc4c(c3)OCO4)n2)cc(C(F)(F)F)c1 [compound 541] | – | – | ≤ 20 | ≤ 20 | –
Cc1cc(Nc2ncc(F)c(Nc3ccc4c(c3)OCO4)n2)cc(C(F)(F)F)c1 [compound 542] | – | – | > 20 | > 20 | –
Fc1cnc(Nc2cc(Cl)cc(Cl)c2)nc1Nc1ccc2c(c1)OCO2 [compound 543] | – | – | ≤ 20 | ≤ 20 | –

From patent US8809341B2, “2,4-pyrimidinediamine compounds and uses as anti-proliferative agents” (Rigel Pharmaceuticals, Inc., priority 2003, dated 2014)
